The source of these data is US20090053154A1, “MIXTURES OF ETHYLHEXYL P-METHOXYCINNAMATE AND ETHYLHEXYL SALICYLATE” (SYMRISE GmbH & Co. KG, priority 2005, published 2009).

The conditions of data set [1]: cited from earlier work.
For data set [2] the following is noted: emulsion containing 5 wt. % of EHMC; cited from earlier work.
A short description of data set [3]: Specific extinction E 1%/1 cm of the UV filter. The class given is physicochemical. Conditions: EHS versus EHMC. An excerpt:
2-Ethylhexyl p-methoxycinnamate (ethylhexyl p-methoxycinnamate, CAS no.: 5466-77-3; USAN: Octinoxate, Neo Heliopan® AV (Symrise trade mark); hereafter abbreviated to EHMC) is a liquid, oil-soluble UV-B filter with a specific extinction E 1%/1 cm at 308 nm of approx. 850 (cf. H&R Contact no. 51, January 1991, pages 3-8). 2-Ethylhexyl p-methoxycinnamate is also frequently abbreviated to octyl methoxycinnamate (OMC) in the literature.
2-Ethylhexyl salicylate (CAS no.: 118-60-5; USAN: Octisalate, Neo Heliopan® OS (Symrise trade mark); hereafter abbreviated to EHS) is likewise a liquid, oil-soluble UV-B filter with a specific extinction E 1%/1 cm at 305 nm of approx. 180 (cf. H&R Contact no. 51, January 1991, pages 3-8). The specific extinction of EHS is lower than that of EHMC by a factor of about 5.
The specific extinction of UV filters is of primary importance as an index for assessing the efficacy in respect of the achievable light protection factor (LPF, hereafter also SPF (sun protection factor)). […] The light protection factor of a (light protection) formulation is a measure of the UV-B protection it can achieve. The absolute SPF values also depend within certain limits on the cosmetic base formulation used.

Like-named read-outs stand apart in the source and are kept apart here.

Turning to `CCCCC(CC)COC(=O)C=Cc1ccc(OC)cc1` (stereo not shown) [EHMC, 2-Ethylhexyl p-methoxycinnamate], the “specific extinction E 1%/1 cm” value in data set [1] (at 308 nm) is “approx. 850”. In data set [2], the “SPF (in vitro measurement)” value is listed as 10.1.

For `CCCCC(CC)COC(=O)c1ccccc1O` (stereo not shown) [EHS, 2-Ethylhexyl salicylate], the “specific extinction lower than that of EHMC by a factor” value in data set [3] is “about 5”. The “specific extinction E 1%/1 cm” value in data set [1] (at 305 nm) is reported as “approx. 180”.
